From US12458605B2, “Lipid nanoparticle” (National University Corporation Hokkaido University, priority 2020, dated 2025)

Tests used:
[1] = Storage stability of FlucmRNA-loaded LNP at −80, 5, 25 and 40° C.; format: physicochemical; conditions: for period for which quality remained good, −80° C.: maximum storage period 1 week; for quality at production (storage stability criteria): criteria: PDI 0.2 or less, encapsulation 80% or more
Protocol: Lipid nanoparticles were allowed to stand at each temperature of −80° C., 5° C., 25° C., and 40° C., and after keeping for each period of time, average particle size, PDI, and nucleic acid encapsulation rate were measured. Lipid nanoparticles which satisfy following all three conditions were defined that the quality was remained well: the average particle size is maintained within +/−20 nm based on the date of LNP preparation; PDI remains high uniformity with a value of 0.2 or less; and the nucleic acid encapsulation rate is also maintained at 80% or more. As a result of measuring average particle size, PDI, and nucleic acid encapsulation rate after each FlucmRNA-loaded lipid nanoparticle was allowed to stand at −80° C., 5° C., 25° C., and 40° C. respectively and kept for each period of time, periods of time defined as the quality of the lipid nanoparticles was remained well are shown in Tables 13 and 14. The lipid nanoparticles which remain in good quality with standing at 5° C. for one week or more can be evaluated as having excellent stability.

[2] = siRNA/mRNA encapsulation rate by Ribogreen reagent (section IV); format: physicochemical; conditions: for % siRNA encapsulation: F7siRNA-loaded LNP, 50:10:38.5:1.5, N/P ratio 6; for % mRNA encapsulation: FlucmRNA-loaded LNP, 50:10:38.5:1.5
Protocol: The encapsulation rates of siRNA and mRNA of lipid nanoparticles were measured with Ribogreen reagent. A solution diluted with TE buffer solution was arranged so that lipid nanoparticle concentration as nucleic acid concentration to be 8 μg/mL, as a solution for measuring nanoparticle surface nucleic acid concentration. In addition, a solution for measuring total nucleic acid concentration was arranged so that lipid nanoparticle concentration as nucleic acid concentration to be 1.2 μg/mL, which is 1% (w/w) concentration of X-triton100, by adding X-triton100. For 100 μL of each solution, 100 μL of Ribogreen (registered trademark) reagent (Quant-iT™ RiboGreen™ RNA Reagent, manufactured by Thermofisher Scientific) was mixed well in the wells of 96-well microplate (black, made of polystyrene, flat bottom, manufactured by Corning), and the fluorescence intensity at an excitation wavelength of 485 nm and a measurement wavelength of 528 nm was measured with a microplate reader. Nucleic acid concentration was calculated by calibration curve created by measuring the fluorescence intensity of nucleic acid solution containing 1% X-triton100 (nucleic acid concentration: 0-2.5 μg/mL) as same as aforementioned. Nucleic acid encapsulation rate of each lipid nanoparticle was calculated by the following formula: Encapsulation rate %=(nucleic acid concentration in solution for measuring total nucleic acid concentration (μg/mL)−nucleic acid concentration in solution for measuring nanoparticle surface nucleic acid concentration (μg/mL))/nucleic acid concentration in solution for measuring total nucleic acid concentration (μg/mL)×100. <Results>
The encapsulation rate of mRNA of lipid nanoparticles was measured using Ribogreen (manufactured by life technologies).

[3] = tested on: F7; assay: In vivo F7 knockdown, plasma F7 enzyme activity (BIOPHEN FVII), Balb/c mice; conditions: i.v. 0.025 mg siRNA/kg, plasma at 24 hours
Protocol: Then, each prepared F7siRNA-loaded lipid nanoparticles were administered to Balb/c mice (Charles River Laboratories Japan, Inc., 5 weeks old, female) and in vivo F7 knockdown activity was examined. Specifically, BALB/c mice were intravenously administered F7siRNA-loaded lipid nanoparticles comprising the lipids described in Table 9 at 0.025 mg siRNA/kg and F7siRNA-loaded lipid nanoparticles comprising the lipids described in Tables 10 and 11 at 0.025 mg siRNA/kg, and the plasma F7 enzyme activity at 24 hours later was measured using BIOPHEN FVII (Biophen, A221304). Relative plasma F7 enzyme activity (%) of mice administered each F7siRNA-loaded lipid nanoparticles was calculated using plasma F7 enzyme activity of untreated mice as 100%. Furthermore, the ratio was calculated using the relative plasma F7 enzyme activity (%) of mice administered MC3-comprising F7siRNA-loaded lipid nanoparticles as 1. The results of measurement of CL4F6 derivative nanoparticles are shown in Tables 9 and 10, and results of measurement of CL15F6 derivative nanoparticles in Table 11.

[4] = tested on: spleen; assay: In vivo Fluc activity of FlucmRNA-loaded LNP by in vivo imaging, spleen; conditions: Balb/c mice, 6 hours; for Fluc Activity in spleen: FlucmRNA-loaded LNP i.v. 0.1 mg mRNA/kg; for Fluc activity in the spleen, compared with CL4F6: 0.1 mg mRNA/kg, versus LNP comprising CL4F6 (Tables 5 and 6)
Protocol: (§1) Then, each prepared FlucmRNA-loaded lipid nanoparticles were administered to Balb/c mice (Charles River Laboratories Japan, Inc., 7 weeks old, female) and in vivo gene expression activity was examined. Specifically, each FlucmRNA-loaded lipid nanoparticles were intravenously administered to Balb/c mice at 0.1 mg mRNA/kg, and Fluc activities in the liver and spleen at 6 hours later were measured. Fluc activity was measured by in vivo imaging system (Perkin Elmer, IVIS200) after administration of VivoGlo Luciferin, In Vivo Grade (Promega, P1041) dissolved with PBS to 15 mg/mL, via tail vein at a dose of 1.5 mg per mouse. The unit of Fluc activity is the emission intensity per unit area (Avg Radiance [p/s/cm2/sr]) at the maximum emission wavelength of about 560 nm. The results of measurement of the Fluc activity (Avg Radiance [p/s/cm2/sr]) in the liver and spleen of mice administered each FlucmRNA-loaded lipid nanoparticles are shown in Tables 5-7.

[5] = tested on: liver; assay: In vivo Fluc activity of FlucmRNA-loaded LNP by in vivo imaging, liver; conditions: Balb/c mice, FlucmRNA-loaded LNP i.v. 0.1 mg mRNA/kg, 6 hours
Protocol: as §1

[6] = Average particle size (ζ-Average) and PDI by dynamic light scattering (Zetasizer Nano ZSP); format: physicochemical
Protocol: The average particle size (ζ-Average) and PDI in PBS(−) of lipid nanoparticles were measured using “Zetasizer Nano ZSP”, an analyzer utilizing dynamic light scattering (manufactured by Malvern).
Measurement of average particle size and PDI of the lipid nanoparticles were carried out with the same method as the measurement of average particle size of mRNA-LNP.
The average particle size (ζ-Average) and PDI in PBS (−) of lipid nanoparticles were measured using “Zetasizer Nano ZSP”, an analyzer utilizing dynamic light scattering (manufactured by Malvern).

[7] = F7siRNA-loaded LNP, 50:10:38.5:1.5, N/P ratio 6
[8] = FlucmRNA-loaded LNP, 50:10:38.5:1.5
[9] = FlucmRNA-loaded LNP, lipid:DSPC:cholesterol:DMG-PEG2K 50:10:38.5:1.5

Compound	period for which quality remained good, −80° C. [1] [week]	period for which quality remained good, 5° C. ([1]; maximum storage period 5 weeks) [weeks]	period for which quality remained good, 25° C. ([1]; maximum storage period 5 weeks) [weeks]	period for which quality remained good, 40° C. (weeks) ([1]; maximum storage period 5 weeks)	% siRNA encapsulation [2] [%]	% mRNA encapsulation [2] [%]	F7 enzyme activity (%) ([3]; untreated mice as 100%)	quality at production (storage stability criteria) [1]	Fluc Activity in spleen [4]	Fluc Activity in liver [5]	PDI [6, 7]	ζ-Average (nm) [6, 7] [nm]	PDI [6, 8]	ζ-Average (nm) [6, 9] [nm]	period for which quality remained good, 40° C. ([1]; maximum storage period 5 weeks) [days]	period for which quality remained good, 40° C. (days) ([1]; maximum storage period 5 weeks) [day days]	Fluc activity in the spleen, compared with CL4F6 [4]	F7 enzyme activity (Ratio using MC3 as 1) ([3]; relative plasma F7 activity of MC3 LNP as 1)
7-hydroxy-7-(4-((1-methylpiperidine-4-carbonyl)oxy)butyl)tridecan-1,13-diyl bis(2-(4,4-dimethylpentan-2-yl)-5,7,7-trimethyloctanoate [CL15G6]	1	5	5	5 weeks	–	–	–	–	–	–	–	–	–	–	–	–	–	–
CCCCC(CC)C(=O)OCCCCCCC(O)(CCCCCCOC(=O)C(CC)CCCC)CCCCN(CCC)CCC (stereo not drawn) [CL4F 6-2]	–	–	–	–	56.9	41.4	54.8	Does not meet the criteria for “good” at production	1.24E+05 Avg Radiance [p/s/cm2/sr]	1.34E+03 Avg Radiance [p/s/cm2/sr]	0.298	274.50	0.069	218.20	–	–	–	–
CCCCC(CCCC)C(=O)OCCCCCCC(O)(CCCCCCOC(=O)C(CCCC)CCCC)CCCCN(CCC)CCC [CL4F 6-4]	0	5	5	–	–	97.2	–	–	2.95E+05 Avg Radiance [p/s/cm2/sr]	2.17E+05 Avg Radiance [p/s/cm2/sr]	–	–	0.023	141.10	3	–	–	–
CCCCCC(CCC)C(=O)OCCCCCCC(O)(CCCCCCOC(=O)C(CCC)CCCCC)CCCCN(CCC)CCC (stereo not drawn) [CL4F 7-3]	0	5	5	–	–	98.1	–	–	6.64E+05 Avg Radiance [p/s/cm2/sr]	3.43E+05 Avg Radiance [p/s/cm2/sr]	–	–	0.025	133.90	–	0	–	–
CCCCCC(CCCC)C(=O)OCCCCCCC(O)(CCCCCCOC(=O)C(CCCC)CCCCC)CCCCN(CCC)CCC (stereo not drawn) [CL4F 7-4]	0	5	5	1 week weeks	–	98.8	–	–	7.43E+06 Avg Radiance [p/s/cm2/sr]	5.05E+06 Avg Radiance [p/s/cm2/sr]	–	–	0.032	113.50	–	–	higher Fluc activity	–
CCCCCCCC(CCCC)C(=O)OCCCCCCC(O)(CCCCCCOC(=O)C(CCCC)CCCCCCC)CCCCN(CCC)CCC (stereo not drawn) [CL4F 9-4]	1	5	5	1 week weeks	–	99.1	–	–	8.69E+06 Avg Radiance [p/s/cm2/sr]	2.55E+07 Avg Radiance [p/s/cm2/sr]	–	–	0.002	95.29	–	–	higher Fluc activity	–
CCCCCCCC(CCCCCC)C(=O)OCCCCCCC(O)(CCCCCCOC(=O)C(CCCCCC)CCCCCCC)CCCCN(CCC)CCC (stereo not drawn) [CL4F 9-6]	1	5	5	5 weeks	–	99.1	–	–	3.89E+06 Avg Radiance [p/s/cm2/sr]	9.61E+07 Avg Radiance [p/s/cm2/sr]	–	–	0.021	89.18	–	–	–	–
CCCCCCCCCCCCCCCC(=O)OCCCCCCC(O)(CCCCCCOC(=O)CCCCCCCCCCCCCCC)CCCCN(CCC)CCC [CL4F 16-0]	–	–	–	–	–	86.2	–	Does not meet the criteria for “good” at production	2.83E+05 Avg Radiance [p/s/cm2/sr]	2.32E+04 Avg Radiance [p/s/cm2/sr]	–	–	0.225	158.30	–	–	–	–
CCCCC(CC)C(=O)OCCCCCCC(O)(CCCCCCOC(=O)C(CC)CCCC)CCCCOC(=O)C1CCN(C)CC1 (stereo not drawn) [CL15F 6-2]	–	–	–	–	100.4	–	–	Does not meet the criteria for “good” at production	–	–	0.534	390.7	–	–	–	–	–	1.87
